Counter-ions that a name gives are not always drawn.

This test concerns HCT116. The conditions noted are these: 72 h. Put shortly: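 After seeding at 250 cells per well in 1536-well plates, HCT116 cells were given 5 h to attach. CellTiter-Glo luminescence, scaled to 0% for vehicle and -100% for positive control, was pattern-corrected. Fitting with a four-parameter Hill model produced IC50 and maximal efficacy.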

Regarding `CCCCCCC(=O)O[C@H]1CC[C@H]2[C@@H]3CC[C@H]4CC(=O)C=C(C)[C@]4(C)[C@H]3CC[C@]12C` [Methenolone enanthate], the IC50 cell viability was over 45.8 µM (ICRF193 0 nM) and over 45.8 µM (ICRF193 200 nM).
As to `CC[C@@H](CO)NC(=O)[C@@H]1C=C2c3cccc4[nH]cc(c34)C[C@H]2N(C)C1` [Methergine], the IC50 cell viability runs as follows: (ICRF193 0 nM) over 45.8 µM; (ICRF193 200 nM) over 45.8 µM.
On to `COc1cccc(OC)c1C(=O)N[C@@H]1C(=O)N2[C@@H]1SC(C)(C)[C@@H]2C(=O)O` [Methicillin sodium hydrate], for which the IC50 cell viability (ICRF193 0 nM) was over 45.8 µM and the IC50 cell viability (ICRF193 200 nM) is over 45.8 µM.
With `Cn1ccnc1S` [Methimazole], the IC50 cell viability reads like this: (ICRF193 0 nM) over 45.8 µM; (ICRF193 200 nM) over 45.8 µM.
Take `COc1ccccc1OCC(O)COC(N)=O` (stereo not given) [Methocarbamol]: the IC50 cell viability runs as follows: (ICRF193 0 nM) over 45.8 µM; (ICRF193 200 nM) over 45.8 µM.
For the compound `COc1ccc(OC)c(C(O)C(C)N)c1` (stereo not given) [Methoxamine hydrochloride], the IC50 cell viability by setting is: (ICRF193 0 nM) over 45.8 µM; (ICRF193 200 nM) over 45.8 µM.
As to `COc1c2occc2cc2ccc(=O)oc12` [Methoxsalen], the IC50 cell viability is, setting by setting: (ICRF193 0 nM) over 45.8 µM; (ICRF193 200 nM) over 45.8 µM.
Turning to `COC(F)(F)C(Cl)Cl` [Methoxyflurane], the IC50 cell viability by setting is: (ICRF193 0 nM) over 45.8 µM; (ICRF193 200 nM) over 45.8 µM.
As for `CNC(C)Cc1ccccc1OC` (stereo not given) [Methoxyphenamine], the IC50 cell viability (ICRF193 0 nM) was over 45.8 µM and the IC50 cell viability (ICRF193 200 nM) is over 45.8 µM.
Consider `CN1C(=O)CC(C)(c2ccccc2)C1=O` (stereo not given) [Methsuximide], for which the IC50 cell viability runs as follows: (ICRF193 0 nM) over 45.8 µM; (ICRF193 200 nM) over 45.8 µM.
For `CN1C(CCl)Nc2cc(Cl)c(S(N)(=O)=O)cc2S1(=O)=O` (stereo not given) [Methyclothiazide], the IC50 cell viability runs as follows: (ICRF193 0 nM) over 45.8 µM; (ICRF193 200 nM) over 45.8 µM.
Consider `COC(=O)CCC(=O)CN` [Methyl delta-aminolevulinate hydrochloride], for which the IC50 cell viability is, setting by setting: (ICRF193 0 nM) over 45.8 µM; (ICRF193 200 nM) over 45.8 µM.
As to `COC(=O)c1cccnc1` [Methyl nicotinate], the IC50 cell viability reads like this: (ICRF193 0 nM) over 45.8 µM; (ICRF193 200 nM) over 45.8 µM.
Regarding `COC(=O)c1ccccc1O` [Methyl salicylate], the IC50 cell viability is, setting by setting: (ICRF193 0 nM) over 45.8 µM; (ICRF193 200 nM) over 45.8 µM.
`C[N+]1(C)[C@@H]2CC[C@H]1C[C@@H](OC(=O)C(CO)c1ccccc1)C2` (stereo not given in full) [Methylatropine nitrate]: the IC50 cell viability (ICRF193 0 nM) was over 45.8 µM and the IC50 cell viability (ICRF193 200 nM) is over 45.8 µM.
Consider `C[C@](N)(Cc1ccc(O)c(O)c1)C(=O)O` [Methyldopa], for which the IC50 cell viability by setting is: (ICRF193 0 nM) over 45.8 µM; (ICRF193 200 nM) over 45.8 µM.
For `C[N@+]1(CC2CC2)CC[C@]23c4c5ccc(O)c4O[C@H]2C(=O)CC[C@@]3(O)[C@H]1C5` [Methylnaltrexone Bromide], the IC50 cell viability runs as follows: (ICRF193 0 nM) over 45.8 µM; (ICRF193 200 nM) over 45.8 µM.
Take `COC(=O)c1ccc(O)cc1` [Methylparaben]: the IC50 cell viability is over 45.8 µM (ICRF193 0 nM) and over 45.8 µM (ICRF193 200 nM).
Take `CC1CCN(CCCC(=O)c2ccc(F)cc2)CC1` [Methylperone]: the IC50 cell viability (ICRF193 0 nM) was over 45.8 µM and the IC50 cell viability (ICRF193 200 nM) is over 45.8 µM.
`CCC(=O)O[C@]1(C(=O)COC(C)=O)CC[C@H]2[C@@H]3C[C@H](C)C4=CC(=O)C=C[C@]4(C)[C@H]3[C@@H](O)C[C@@]21C` [Methylprednisolone aceponate]: the IC50 cell viability (ICRF193 0 nM) is over 45.8 µM and the IC50 cell viability (ICRF193 200 nM) was over 45.8 µM.
As to `CC(=O)OCC(=O)[C@@]1(O)CC[C@H]2[C@@H]3C[C@H](C)C4=CC(=O)C=C[C@]4(C)[C@H]3[C@@H](O)C[C@@]21C` [Methylprednisolone acetate], the IC50 cell viability was over 45.8 µM (ICRF193 0 nM) and over 45.8 µM (ICRF193 200 nM).
The compound `C[C@H]1C[C@@H]2[C@H]([C@@H](O)C[C@@]3(C)[C@H]2CC[C@]3(O)C(=O)CO)[C@@]2(C)C=CC(=O)C=C12` [Methylprednisolone] gave an IC50 cell viability (ICRF193 0 nM) of over 45.8 µM and an IC50 cell viability (ICRF193 200 nM) of over 45.8 µM.
On to `CC[C@@H](CO)NC(=O)[C@@H]1C=C2c3cccc4c3c(cn4C)C[C@H]2N(C)C1` [Methysergide], for which the IC50 cell viability reads like this: (ICRF193 0 nM) over 45.8 µM; (ICRF193 200 nM) over 45.8 µM.
As to `Cc1cc2c(cc1S(N)(=O)=O)S(=O)(=O)CCC2` [Meticrane], the IC50 cell viability is over 45.8 µM (ICRF193 0 nM) and over 45.8 µM (ICRF193 200 nM).
In the case of `CC(=O)Oc1c(C)cc(OCC(O)CNC(C)C)c(C)c1C` (stereo not given) [Metipranolol], the IC50 cell viability is over 45.8 µM (ICRF193 0 nM) and over 45.8 µM (ICRF193 200 nM).

Values taken from the supplement of paper PMC12137928.
